Test results published in patent US20250296953A1, “3,4-THIAZOLO-STEROIDS AND METHODS OF MAKING AND USING THE SAME” (Arkansas State University - Jonesboro, priority 2018, published 2025).
Read-outs that look alike come from different tables or passages of the source.

Legend:
NCI-H522 (NSCLC) = assay: NCI 60 one dose screen; type: cell-based, human; conditions: Non-small Cell Lung Cancer
glioblastoma (SF-295) = assay: NCI 60 five dose screen; conditions: for GI50 / CC50: Homo sapiens; for GI50: SF-295; for CC50: SF-295, read-out: LC50; for TGI: SF-295 (CNS Cancer), five dose
RPMI-8226 = assay: NCI 60 five dose screen; conditions: for GI50 / CC50: Homo sapiens; for GI50: RPMI-8226; for CC50: RPMI-8226, read-out: LC50; for TGI: RPMI-8226 (Leukemia), five dose
[1] = test system: 60 different human tumor cell lines; assay: cells

C[C@]12CCc3sc(Nc4cccc(O)c4)nc3C1=CC[C@@H]1[C@@H]2CC[C@]2(C)C(=O)CC[C@@H]12 [IIa.17, (1S,2R,13R,14S,18S)-7-(3-hydroxyanilino)-2,18-dimethyl-6-thia-8-azapentacyclo[11.7.0.02,10.05,9.014,18]icosa-5(9),7,10-trien-17-one]
Growth Percent (NCI-H522 (NSCLC)): −56.41% | GI50 (glioblastoma (SF-295)): 8.98 µM | CC50 (glioblastoma (SF-295)): > 100 µM | TGI (glioblastoma (SF-295)): >1.00E−4 | GI50 (RPMI-8226): 2.73 µM | CC50 (RPMI-8226): > 100 µM | TGI (RPMI-8226): 7.44E−6 | GI50 ([1]; 60 cell): 5.52 µM | CC50 ([1]; 60 cell, read-out: LC50): > 100 µM | GI50 ([1]; 786-0): 3.02 µM | CC50 ([1]; 786-0, read-out: LC50): > 100 µM | GI50 ([1]; A498): 28.8 µM | CC50 ([1]; A498, read-out: LC50): > 100 µM | GI50 ([1]; A549): 26.4 µM | CC50 ([1]; A549, read-out: LC50): > 100 µM | GI50 ([1]; ACHN): 7.81 µM | CC50 ([1]; ACHN, read-out: LC50): > 100 µM | GI50 ([1]; BT-549): 4.58 µM | CC50 ([1]; BT-549, read-out: LC50): > 100 µM | GI50 ([1]; CAKI-1): 13 µM | CC50 ([1]; CAKI-1, read-out: LC50): 70 µM | GI50 ([1]; CCRF-CEM): 2.84 µM | CC50 ([1]; CCRF-CEM, read-out: LC50): > 100 µM | GI50 ([1]; COLO 205): 12.3 µM | CC50 ([1]; COLO 205, read-out: LC50): > 100 µM | GI50 ([1]; DU-145): 4.34 µM | CC50 ([1]; DU-145, read-out: LC50): > 100 µM | GI50 ([1]; EKVX): 28.8 µM | CC50 ([1]; EKVX, read-out: LC50): > 100 µM | GI50 ([1]; HCC 2998): 18.2 µM | CC50 ([1]; HCC 2998, read-out: LC50): > 100 µM | GI50 ([1]; HCT-15): 2.53 µM | CC50 ([1]; HCT-15, read-out: LC50): > 100 µM | GI50 ([1]; HCT-116): 1.91 µM | CC50 ([1]; HCT-116, read-out: LC50): 9.09 µM | GI50 ([1]; HOP-62): 22.4 µM | CC50 ([1]; HOP-62, read-out: LC50): > 100 µM | GI50 ([1]; HOP-92): 18.7 µM | GI50 ([1]; HT-29): 3.9 µM | CC50 ([1]; HT-29, read-out: LC50): 75.2 µM | GI50 ([1]; Hs-578T): 12 µM | CC50 ([1]; Hs-578T, read-out: LC50): > 100 µM | GI50 ([1]; IGROV-1): 8.21 µM | CC50 ([1]; IGROV-1, read-out: LC50): > 100 µM | GI50 ([1]; K562): 2.79 µM | CC50 ([1]; K562, read-out: LC50): > 100 µM | GI50 ([1]; KM12): 8.27 µM | CC50 ([1]; KM12, read-out: LC50): 94.7 µM | GI50 ([1]; LOX IMVI): 3.22 µM | CC50 ([1]; LOX IMVI, read-out: LC50): 48.1 µM | GI50 ([1]; M14): 7.88 µM | CC50 ([1]; M14, read-out: LC50): > 100 µM | GI50 ([1]; MCF7): 3.85 µM | CC50 ([1]; MCF7, read-out: LC50): > 100 µM | GI50 ([1]; MDA-MB-231): 13.4 µM | CC50 ([1]; MDA-MB-231, read-out: LC50): > 100 µM | GI50 ([1]; MDA-MB-435): 3.49 µM | CC50 ([1]; MDA-MB-435, read-out: LC50): > 100 µM | GI50 ([1]; MDA-MB-468): 3.59 µM | CC50 ([1]; MDA-MB-468, read-out: LC50): 54.7 µM | GI50 ([1]; MOLT-4): 2.84 µM | CC50 ([1]; MOLT-4, read-out: LC50): ≥ 100 µM | GI50 ([1]; Malme-3M): 21.2 µM | CC50 ([1]; Malme-3M, read-out: LC50): > 100 µM | GI50 ([1]; NCI-H23): 18.1 µM | CC50 ([1]; NCI-H23, read-out: LC50): > 100 µM | GI50 ([1]; NCI-H226): 7.36 µM | CC50 ([1]; NCI-H226, read-out: LC50): > 100 µM | GI50 ([1]; NCI-H322M): 50.5 µM | CC50 ([1]; NCI-H322M, read-out: LC50): > 100 µM | GI50 ([1]; NCI-H460): 4.65 µM | CC50 ([1]; NCI-H460, read-out: LC50): > 100 µM | GI50 ([1]; NCI-H522): 6.6 µM | CC50 ([1]; NCI-H522, read-out: LC50): 69.3 µM | GI50 ([1]; NCI/ADR-RES): 6.34 µM | CC50 ([1]; NCI/ADR-RES, read-out: LC50): > 100 µM | GI50 ([1]; OVCAR-3): 4.41 µM | CC50 ([1]; OVCAR-3, read-out: LC50): > 100 µM | GI50 ([1]; OVCAR-4): 18.9 µM | CC50 ([1]; OVCAR-4, read-out: LC50): > 100 µM | GI50 ([1]; OVCAR-5): 24.5 µM | CC50 ([1]; OVCAR-5, read-out: LC50): > 100 µM | GI50 ([1]; OVCAR-8): 7.61 µM | CC50 ([1]; OVCAR-8, read-out: LC50): > 100 µM | GI50 ([1]; RXF 393): 3.18 µM | CC50 ([1]; RXF 393, read-out: LC50): 48.9 µM | GI50 ([1]; SF-268): 5.95 µM | CC50 ([1]; SF-268, read-out: LC50): > 100 µM | GI50 ([1]; SK-MEL-2): 17.1 µM | CC50 ([1]; SK-MEL-2, read-out: LC50): > 100 µM | GI50 ([1]; SK-MEL-5): 10.2 µM | CC50 ([1]; SK-MEL-5, read-out: LC50): 62.5 µM | GI50 ([1]; SK-MEL-28): 20.5 µM | CC50 ([1]; SK-MEL-28, read-out: LC50): > 100 µM | GI50 ([1]; SK-OV-3): 34 µM | CC50 ([1]; SK-OV-3, read-out: LC50): > 100 µM | GI50 ([1]; SN12C): 3.81 µM | CC50 ([1]; SN12C, read-out: LC50): > 100 µM | GI50 ([1]; SNB-19): 12.9 µM | CC50 ([1]; SNB-19, read-out: LC50): > 100 µM | GI50 ([1]; SNB-75): 5.4 µM | CC50 ([1]; SNB-75, read-out: LC50): > 100 µM | GI50 ([1]; SW-620): 3.38 µM | CC50 ([1]; SW-620, read-out: LC50): > 100 µM | GI50 ([1]; T47D): 3.5 µM | CC50 ([1]; T47D, read-out: LC50): > 100 µM | GI50 ([1]; TK-10): 7.47 µM | CC50 ([1]; TK-10, read-out: LC50): > 100 µM | GI50 ([1]; U-251): 4.41 µM | CC50 ([1]; U-251, read-out: LC50): 58.6 µM | GI50 ([1]; UACC-62): 9.54 µM | CC50 ([1]; UACC-62, read-out: LC50): 89.7 µM | GI50 ([1]; UACC-257): 23.8 µM | CC50 ([1]; UACC-257, read-out: LC50): > 100 µM | GI50 ([1]; UO-31): 5.26 µM | CC50 ([1]; UO-31, read-out: LC50): 49.9 µM

C[C@]12CCc3sc(Nc4ccc(OC(F)(F)F)cc4)nc3C1=CC[C@@H]1[C@@H]2CC[C@]2(C)C(=O)CC[C@@H]12 [IIa.19, (1S,2R,13R,14S,18S)-2,18-dimethyl-7-[4-(trifluoromethoxy)anilino]-6-thia-8-azapentacyclo[11.7.0.02,10.05,9.014,18]icosa-5(9),7,10-trien-17-one]
Growth Percent (NCI-H522 (NSCLC)): 89.13% | GI50 (glioblastoma (SF-295)): 0.7 µM | CC50 (glioblastoma (SF-295)): 7.16 µM | TGI (glioblastoma (SF-295)): 2.44E−6 | GI50 (RPMI-8226): 1.02 µM | CC50 (RPMI-8226): > 100 µM | TGI (RPMI-8226): 3.77E−6 | GI50 ([1]; A549): 3.35 µM | CC50 ([1]; A549, read-out: LC50): 73.5 µM | GI50 ([1]; CCRF-CEM): 1.42 µM | CC50 ([1]; CCRF-CEM, read-out: LC50): > 100 µM | GI50 ([1]; COLO 205): 2.61 µM | CC50 ([1]; COLO 205, read-out: LC50): 58.7 µM | GI50 ([1]; EKVX): 2.63 µM | CC50 ([1]; EKVX, read-out: LC50): 95.7 µM | GI50 ([1]; HCC 2998): 5.32 µM | CC50 ([1]; HCC 2998, read-out: LC50): 51.2 µM | GI50 ([1]; HCT-15): 1.69 µM | CC50 ([1]; HCT-15, read-out: LC50): 9.97 µM | GI50 ([1]; HCT-116): 1.28 µM | GI50 ([1]; HL-60): 1.93 µM | CC50 ([1]; HL-60, read-out: LC50): > 100 µM | GI50 ([1]; HOP-62): 1.92 µM | CC50 ([1]; HOP-62, read-out: LC50): 9.14 µM | GI50 ([1]; HOP-92): 1.43 µM | CC50 ([1]; HOP-92, read-out: LC50): 8.26 µM | GI50 ([1]; HT-29): 2.39 µM | CC50 ([1]; HT-29, read-out: LC50): > 100 µM | GI50 ([1]; K562): 1.87 µM | CC50 ([1]; K562, read-out: LC50): > 100 µM | GI50 ([1]; KM12): 3.56 µM | CC50 ([1]; KM12, read-out: LC50): > 100 µM | GI50 ([1]; LOX IMVI): 1.74 µM | CC50 ([1]; LOX IMVI, read-out: LC50): 5.82 µM | GI50 ([1]; MOLT-4): 1.53 µM | CC50 ([1]; MOLT-4, read-out: LC50): > 100 µM | GI50 ([1]; Malme-3M): 3.45 µM | CC50 ([1]; Malme-3M, read-out: LC50): 84.5 µM | GI50 ([1]; NCI-H23): 3.73 µM | CC50 ([1]; NCI-H23, read-out: LC50): 94.6 µM | GI50 ([1]; NCI-H226): 6.37 µM | CC50 ([1]; NCI-H226, read-out: LC50): > 100 µM | GI50 ([1]; NCI-H322M): 6.05 µM | CC50 ([1]; NCI-H322M, read-out: LC50): > 100 µM | GI50 ([1]; NCI-H460): 3.25 µM | CC50 ([1]; NCI-H460, read-out: LC50): 41.9 µM | GI50 ([1]; NCI-H522): 2.14 µM | CC50 ([1]; NCI-H522, read-out: LC50): 9.7 µM | GI50 ([1]; SF-268): 3.01 µM | CC50 ([1]; SF-268, read-out: LC50): 57.3 µM | GI50 ([1]; SNB-19): 2.12 µM | CC50 ([1]; SNB-19, read-out: LC50): 46 µM | GI50 ([1]; SNB-75): 1.88 µM | CC50 ([1]; SNB-75, read-out: LC50): 29.6 µM | GI50 ([1]; SW-620): 2.21 µM | CC50 ([1]; SW-620, read-out: LC50): 18.5 µM | GI50 ([1]; U-251): 1.09 µM | CC50 ([1]; U-251, read-out: LC50): 9.78 µM
